# Reference: paper PMC7321065, “Discovery of New Schiff Bases Tethered Pyrazole Moiety: Design, Synthesis, Biological Evaluation, and Molecular Docking Study as Dual Targeting DHFR/DNA Gyrase Inhibitors with Immunomodulatory Activity” (Molecules, 2020)
# How the values were obtained:
# Escherichia coli [1] = assay: MIC/MBC, paper disk diffusion; assay type: cell-based; conditions: Escherichia coli
# Method: (§1) Antimicrobial activities of the newly formed Schiff bases (6a–d, 7a–d, 8a–d, and 9a–d) and reference drugs were evaluated against three Gram-positive, three Gram-negative, and two fungi strain at Al-Azhar University, Cairo, Egypt. The inhibition zones (IZ, in mm ± standard deviation) and the minimal inhibitory concentration (MIC) (μg/mL) were determined by the conventional paper disk diffusion method.
# (§2) In Vitro Antimicrobial Activities […]
# (§3) DMSO was used for dissolving […]
# (§4) the tested microorganisms.
# (§5) The minimum inhibitory concentration (MIC), the minimum bactericidal concentration (MBC, µg/ml) and […]
# (§6) and 9b) were determined by the conventional technique termed paper disk diffusion, by applying paper […]
# (§7) Bacteria were grown on nutrient agar medium, while fungi and yeast were grown on Sabouraud agar medium. The purified streptomycin was dissolved in […]
# (§8) inoculated with test organism. Growth inhibition was examined after 24 hr. from incubation at 37 °C for bacteria and after 72 hr. incubation at 27 °C for fungi and yeast. Each test was repeated three times. MIC was expressed as the lowest concentration inhibiting test organism’s growth. […]
# Bacillus subtilis [2] = assay: MIC/MBC, paper disk diffusion; assay type: cell-based
# Method: as §1, §2, §3, §4, §5, §6, §7, §8
# Salmonella typhi [3] = assay: MIC/MBC, paper disk diffusion; assay type: cell-based; conditions: Salmonella enterica, S. typhi
# Method: as §1, §2, §3, §4, §5, §6, §7, §8
# Pseudomonas aeruginosa [4] = assay: MIC/MBC, paper disk diffusion; assay type: cell-based; conditions: Pseudomonas aeruginosa
# Method: as §1, §2, §3, §4, §5, §6, §7, §8
# Staphylococcus aureus [5] = assay: MIC/MBC, paper disk diffusion; assay type: cell-based; conditions: Staphylococcus aureus
# Method: as §1, §2, §3, §4, §5, §6, §7, §8
# Enterococcus faecalis [6] = assay: MIC/MBC, paper disk diffusion; assay type: cell-based
# Method: as §1, §2, §3, §4, §5, §6, §7, §8
# E. coli ATCC BAA-196 [7] = assay: Inhibition zone against MDRB, agar plate diffusion; assay type: cell-based
# [8] = tested on: P. aeruginosa ATCC BAA-2111; assay: MIC/MBC against MDRB, paper disk diffusion; assay type: cell-based; conditions: Pseudomonas aeruginosa, ATCCBAA2111
# Source text: (§9) The inhibition zone (IZ, mm±standard deviation) of pyrazole Schiff bases ( 6b, 7b, 7c, 8a, 8d and 9b) was
# (§10) measurement according to the agar plate diffusion method against a panel of multidrug-resistant bacteria
# (MDRB). […]
# S. aureus ATCC 33591 = assay: MIC/MBC against MDRB, paper disk diffusion; assay type: cell-based; conditions: Staphylococcus aureus, ATCC33591
# Source text: as §9, §10
# (MDRB). […]
# [9] = tested on: S. aureus ATCC 43300 (MRSA); assay: MIC/MBC against MDRB, paper disk diffusion; assay type: cell-based; conditions: Staphylococcus aureus
# Source text: as §9, §10
# (MDRB). […]
# E. coli ATCC BAA-196 [10] = assay: MIC/MBC against MDRB, paper disk diffusion; assay type: cell-based; conditions: Escherichia coli, ATCCBAA196
# Source text: as §9, §10
# (MDRB). […]
# Escherichia coli [11] = assay: Inhibition zone, agar plate diffusion; assay type: cell-based; conditions: read-out: Inhibition zone (IZ)
# Method: as §1
# (§11) In Vitro Antimicrobial Activities
# (§12) The antimicrobial activities inhibition zone (IZ, mm±standard deviation) of pyrazole Schiff bases ( 6a-d , 7a-d, 8a-d and 9a-d ) was measurement according to the agar plate diffusion method. Briefly, 100 µl of the […]
# (§13) […] of each sample (at 0.5 mg/mL) was added to each well (10 mm diameter holes cut in the agar gel). The plates were incubated for 24 h at 37 °C (for bacteria and yeast) and for 72 h at 27 °C (for filamentous fungi), each test was repeated three times. After incubation, the microorganism's growth was observed. […]
# (§14) drugs while Amphotericin B was used as standard antifungal drug. The resulting inhibition zone diameters were measured in millimeters and used as criterion for the antimicrobial activity. Solvent controls (DMSO) were included in every experiment as negative controls. DMSO was used for dissolving […]
# (§15) the tested microorganisms. […]
# Bacillus subtilis [12] = assay: Inhibition zone, agar plate diffusion; assay type: cell-based; conditions: read-out: Inhibition zone (IZ)
# Method: as §1, §11, §12, §13, §14, §15
# Pseudomonas aeruginosa [13] = assay: Inhibition zone, agar plate diffusion; assay type: cell-based; conditions: read-out: Inhibition zone (IZ)
# Method: as §1, §11, §12, §13, §14, §15
# Enterococcus faecalis [14] = assay: Inhibition zone, agar plate diffusion; assay type: cell-based; conditions: read-out: Inhibition zone (IZ)
# Method: as §1, §11, §12, §13, §14, §15
# Fusarium oxysporum [15] = assay: MIC/MFC, paper disk diffusion; assay type: cell-based; conditions: Fusarium oxysporum
# Method: as §1, §2, §3, §4, §5, §6, §7, §8
# Candida albicans [16] = assay: MIC/MFC, paper disk diffusion; assay type: cell-based; conditions: Candida albicans
# Method: as §1, §2, §3, §4, §5, §6, §7, §8
# [17] = tested on: mammary gland breast cancer cell line (MCF-7); assay: Antiproliferative activity, MTT assay; assay type: cell-based, human; conditions: Homo sapiens, MCF7, 48 h, read-out: IC50 MCF-7
# Method: (§16) 3-[4, 5-Dimethyl-2-thiazolyl)-2, 5-diphenyl-2 H-tetrazolium bromide (MTT) protocol is based on the cleavage of the tetrazolium salt by mitochondrial dehydrogenases in viable cells. Cells were dispensed in a 96 well sterile microplate (5 x 10^4 cells/well), and incubated at 37 °C with series of different concentrations, in DMSO, of each tested compound or Doxorubicin ® (positive control) for 48 h in a serum free medium prior to the MTT assay. After incubation, media were carefully removed, 40 µL of MTT (2.5 mg/mL) were added to each well and then incubated for an additional 4 h. The purple formazan dye crystals were solubilized by the addition of 200 µL of DMSO. The absorbance was measured at 590 nm using a SpectraMax® Paradigm® Multi-Mode microplate reader. The relative cell viability was expressed as the mean percentage of viable cells compared to the untreated control cells.
# (§17) All experiments were conducted in triplicate and repeated in three different days. All the values were represented as mean ± SD. IC 50s were determined by probit analysis using SPSS software program (SPSS
# [18] = tested on: hepatocellular carcinoma cell line (HepG2); assay: Antiproliferative activity, MTT assay; assay type: cell-based, human; conditions: Homo sapiens, HepG2, 48 h, read-out: IC50 HepG-2
# Method: as §16, §17
# Salmonella typhi [19] = assay: Inhibition zone, agar plate diffusion; assay type: cell-based; conditions: Salmonella enterica, St, mm ± standard deviation, sample at 0.5 mg/mL, read-out: Inhibition zone (IZ)
# Method: as §1, §11, §12, §13, §14, §15
# (§18) Bacteria were grown on nutrient agar medium, while fungi and yeast were grown on Sabouraud agar medium. […]
# Staphylococcus aureus [20] = assay: Inhibition zone, agar plate diffusion; assay type: cell-based; conditions: read-out: Inhibition zone (IZ)
# Method: as §1, §11, §12, §13, §14, §15, §18
# Fusarium oxysporum [21] = assay: Inhibition zone, agar plate diffusion; assay type: cell-based; conditions: read-out: Inhibition zone (IZ)
# Method: as §1, §11, §12, §13, §14, §15, §18
# Candida albicans [22] = assay: Inhibition zone, agar plate diffusion; assay type: cell-based; conditions: read-out: Inhibition zone (IZ)
# Method: as §1, §11, §12, §13, §14, §15, §18
# [23] = tested on: P. aeruginosa ATCC BAA-2111; assay: Inhibition zone against MDRB, agar plate diffusion; assay type: cell-based
# [24] = tested on: S. aureus ATCC 43300 (MRSA); assay: Inhibition zone against MDRB, agar plate diffusion; assay type: cell-based
smiles,measurement,setting,value
"COc1ccc(Nc2n[nH]c(N=Cc3c(C)n(C)n(-c4ccccc4)c3=O)c2C(=O)Nc2ccccc2)cc1 [6b, 5-((1,5-Dimethyl-3-oxo-2-phenyl-2,3-dihydro-1H-pyrazol-4-yl)methyleneamino)-3-(p-methoxyphenylamino)-N-phenyl-1H-pyrazole-4-carboxamide]",MIC,Escherichia coli [1],62.5 mg/L
same,MBC,Escherichia coli [1]; E. coli,87.5 mg/L
same,Fold more potent than Tetracycline (MIC),Bacillus subtilis [2]; B. subtilis,4 fold
same,MIC,Bacillus subtilis [2]; Bacillus subtilis,7.81 mg/L
same,MBC,"Bacillus subtilis [2]; Bacillus subtilis, B. subtilis",14.1 mg/L
same,MIC,Salmonella typhi [3],15.6 mg/L
same,MBC,Salmonella typhi [3]; read-out: MBC,28.1 mg/L
same,MIC,Pseudomonas aeruginosa [4],31.2 mg/L
same,MBC,Pseudomonas aeruginosa [4]; P. aeruginosa,53.1 mg/L
same,MIC,Staphylococcus aureus [5],15.6 mg/L
same,MBC,Staphylococcus aureus [5]; S. aureus,31.2 mg/L
same,MIC,Enterococcus faecalis [6],9.25 mg/L
same,MBC,Enterococcus faecalis [6]; E. faecalis,18.5 mg/L
same,Mean Diameter of Inhibition Zone against MDRB,E. coli ATCC BAA-196 [7],25 ± 0.15 mm
same,MBC,[8],16 mg/L
same,MIC,[8],7.81 mg/L
same,MBC,S. aureus ATCC 33591,15.6 mg/L
same,MIC,S. aureus ATCC 33591,7.81 mg/L
same,MBC,[9],11.9 mg/L
same,MIC,[9],6.25 mg/L
same,MBC,E. coli ATCC BAA-196 [10],7.41 mg/L
same,MIC,E. coli ATCC BAA-196 [10],3.9 mg/L
same,zone of inhibition at 500 µg/mL,Escherichia coli [11],25 ± 0.81 mm
same,zone of inhibition at 500 µg/mL,Bacillus subtilis [12],30 ± 0.5 mm
same,zone of inhibition at 500 µg/mL,Pseudomonas aeruginosa [13],24 ± 0.2 mm
same,zone of inhibition at 500 µg/mL,Enterococcus faecalis [14],29 ± 0.55 mm
same,MFC,Fusarium oxysporum [15],88.8 mg/L
same,MIC,Fusarium oxysporum [15],55.5 mg/L
same,MFC,Candida albicans [16],53.1 mg/L
same,MIC,Candida albicans [16],31.2 mg/L
same,IC50,[17],5.09 ± 0.52 µM
same,IC50,[18],3.42 ± 0.17 µM
same,zone of inhibition at 500 µg/mL,Salmonella typhi [19],20 ± 0.16 mm
same,zone of inhibition at 500 µg/mL,Staphylococcus aureus [20],24 ± 0.12 mm
same,zone of inhibition at 500 µg/mL,Fusarium oxysporum [21],18 ± 0.15 mm
same,zone of inhibition at 500 µg/mL,Candida albicans [22],22 ± 0.56 mm
same,Mean Diameter of Inhibition Zone against MDRB,[23],21 ± 0.66 mm
same,Mean Diameter of Inhibition Zone against MDRB,[24],21 ± 0.21 mm
